In brackets after ≈: the same amount, converted by molar mass. Where two headings read alike, the source gives them in different places.
Experiments:
Type in all cases: cell-based
Botrtyis cinerea (Bc) = assay: In vitro pathogen growth inhibition assay, Bc; conditions: 48 h
Summary of the method: (§1)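 Spores in 17% V8 liquid medium, or 1.5 mm Rs mycelial plugs in ¼ PDB, incubated with compound; final concentration checked by OD600 for precipitation. OD readings at 24 and 48 h, blank-subtracted, plus visual ratings; value is concentration giving ≥90% growth inhibition.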

Septoria tritici (St) = assay: In vitro pathogen growth inhibition assay, St; conditions: Zymoseptoria tritici, 48 h
Summary of the method: as §1

[1] = tested on: Fusarium moniliforme (Fm); assay: In vitro pathogen growth inhibition assay, Fm; conditions: Fusarium verticillioides
Summary of the method: as §1

[2] = tested on: Collectotrichum graminicola (Cg); assay: In vitro pathogen growth inhibition assay, Cg; conditions: 48 h
Summary of the method: as §1

Rhizoctonia solani (Rs) = assay: In vitro pathogen growth inhibition assay, Rs (mycelial plugs); conditions: Rhizoctonia solani, 48 h
Summary of the method: (§2)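 Spores of Dm, Fv and Pc were diluted in 17% V8 liquid medium; Rs used 1.5 mm mycelial plugs in ¼ PDB. Compounds from 2.5 mg/ml DMSO stocks were combined with inoculum, growth was read by OD600 at 24 and 48 h with blank subtraction, and the reported value is the concentration giving ≥90% inhibition.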

[3] = tested on: Fusarium virguliforme (Fv); assay: In vitro pathogen growth inhibition assay, Fv
Summary of the method: as §2

[4] = tested on: Phytophthora capsici (Pc); assay: In vitro pathogen growth inhibition assay, Pc; conditions: 48 h
Summary of the method: as §2

Diplodia maydis (Dm) = assay: In vitro pathogen growth inhibition assay, Dm; conditions: Stenocarpella maydis, 48 h
Summary of the method: as §2

[5] = ≥90% growth inhibition, 48 hours, vs 2% DMSO control, read-out: Compound Concentration (ppm) sufficient for ≥90% inhibition of Bc
[6] = ≥90% growth inhibition, 48 hours, vs 2% DMSO control, read-out: Compound Concentration (ppm) sufficient for ≥90% inhibition of St
[7] = ≥90% growth inhibition, 48 hours, vs 2% DMSO control, read-out: Compound Concentration (ppm) sufficient for ≥90% inhibition of Fm
[8] = ≥90% growth inhibition, 48 hours, vs 2% DMSO control, read-out: Compound Concentration (ppm) sufficient for ≥90% inhibition of Cg
[9] = ≥90% growth inhibition, mycelial plugs, 48 hours, vs 2% DMSO control, read-out: Compound Concentration (ppm) sufficient for ≥90% inhibition of Rs
[10] = ≥90% growth inhibition, 48 hours, vs 2% DMSO control, read-out: Compound Concentration (ppm) sufficient for ≥90% inhibition of Fv
[11] = ≥90% growth inhibition, 48 hours, vs 2% DMSO control, read-out: Compound Concentration (ppm) sufficient for ≥90% inhibition of Pc
[12] = ≥90% growth inhibition, 48 hours, vs 2% DMSO control, read-out: Compound Concentration (ppm) sufficient for ≥90% inhibition of Dm

| IC90 (Botrtyis cinerea (Bc); concentration sufficient to ≥90% inhibition of growth, 48 hours vs 2% DMSO control, read-out: Compound Concentration (ppm) for ≥90% inhibition, Bc) | IC90 (Septoria tritici (St); concentration sufficient to ≥90% inhibition of growth, 48 hours vs 2% DMSO control, read-out: Compound Concentration (ppm) for ≥90% inhibition, St) | IC90 ([1]; concentration sufficient to ≥90% inhibition of growth, 48 hours vs 2% DMSO control, read-out: Compound Concentration (ppm) for ≥90% inhibition, Fm) | IC90 ([2]; concentration sufficient to ≥90% inhibition of growth, 48 hours vs 2% DMSO control, read-out: Compound Concentration (ppm) for ≥90% inhibition, Cg) | IC90 (Rhizoctonia solani (Rs); concentration sufficient to ≥90% inhibition of growth, 48 hours vs 2% DMSO control, read-out: Compound Concentration (ppm) for ≥90% inhibition, Rs) | IC90 ([3]; concentration sufficient to ≥90% inhibition of growth, 48 hours vs 2% DMSO control, read-out: Compound Concentration (ppm) for ≥90% inhibition, Fv) | IC90 ([4]; concentration sufficient to ≥90% inhibition of growth, 48 hours vs 2% DMSO control, read-out: Compound Concentration (ppm) for ≥90% inhibition, Pc) | IC90 (Diplodia maydis (Dm); concentration sufficient to ≥90% inhibition of growth, 48 hours vs 2% DMSO control, read-out: Compound Concentration (ppm) for ≥90% inhibition, Dm) | IC90 (Botrtyis cinerea (Bc); [5]) | IC90 (Septoria tritici (St); [6]) | IC90 [1, 7] | IC90 [2, 8] | IC90 (Rhizoctonia solani (Rs); [9]) | IC90 [3, 10] | IC90 [4, 11] | IC90 (Diplodia maydis (Dm); [12]) | SMILES |
| --- | --- | --- | --- | --- | --- | --- | --- | --- | --- | --- | --- | --- | --- | --- | --- | --- |
| 50 µg/mL (≈ 94.2 µM) | > 50 µg/mL | 10 µg/mL (≈ 18.8 µM) | > 50 µg/mL | 2 µg/mL (≈ 3.77 µM) | 50 µg/mL (≈ 94.2 µM) | > 50 µg/mL | 50 µg/mL (≈ 94.2 µM) |  |  |  |  |  |  |  |  | CCNC(=O)C(C)(C)n1c(=O)c2c(C)c(-n3nccn3)sc2n(C[C@@H](O)c2cc(F)ccc2OC)c1=O [Compound I-291] |
|  |  |  |  |  |  |  |  | 10 µg/mL (≈ 15.6 µM) | > 50 µg/mL | 2 µg/mL (≈ 3.12 µM) | > 50 µg/mL | > 50 µg/mL | 50 µg/mL (≈ 77.9 µM) | > 50 µg/mL | > 50 µg/mL | COCCO[C@@H](Cn1c(=O)n(C(C)(C)C(=O)NC2CCCCC2)c(=O)c2c(C)c(-n3cccn3)sc21)c1cc(F)ccc1OC [Compound I-293] |
|  |  |  |  |  |  |  |  | 0.4 µg/mL (≈ 0.783 µM) | > 50 µg/mL | 0.4 µg/mL (≈ 0.783 µM) | 10 µg/mL (≈ 19.6 µM) | 2 µg/mL (≈ 3.92 µM) | 0.08 µg/mL (≈ 0.157 µM) | > 50 µg/mL | 10 µg/mL (≈ 19.6 µM) | COc1ccccc1CCn1c(=O)n(C(C)(C)C(=O)NC(C)C)c(=O)c2c(C)c(-n3nccn3)sc21 [Compound I-294] |
|  |  |  |  |  |  |  |  | 2 µg/mL (≈ 3.52 µM) | > 50 µg/mL | 0.4 µg/mL (≈ 0.703 µM) | 2 µg/mL (≈ 3.52 µM) | 2 µg/mL (≈ 3.52 µM) | 2 µg/mL (≈ 3.52 µM) | > 50 µg/mL | 10 µg/mL (≈ 17.6 µM) | CCNC(=O)[C@@H](C)n1c(=O)c2c(C)c(-n3cccn3)sc2n(C[C@H](OCCC#N)c2cc(F)ccc2OC)c1=O [Compound I-295] |
|  |  |  |  |  |  |  |  | 2 µg/mL (≈ 3.78 µM) | > 50 µg/mL | 2 µg/mL (≈ 3.78 µM) | 2 µg/mL (≈ 3.78 µM) | 2 µg/mL (≈ 3.78 µM) | 2 µg/mL (≈ 3.78 µM) | > 50 µg/mL | 10 µg/mL (≈ 18.9 µM) | COc1ccc(F)cc1CCn1c(=O)n(C(C)(C)C(=O)NC(C)C)c(=O)c2c(C)c(-n3nccn3)sc21 [Compound I-296] |
|  |  |  |  |  |  |  |  | 10 µg/mL (≈ 17.4 µM) | > 50 µg/mL | 2 µg/mL (≈ 3.48 µM) | 10 µg/mL (≈ 17.4 µM) | > 50 µg/mL | > 50 µg/mL | > 50 µg/mL | > 50 µg/mL | CCNC(=O)[C@@H](C)n1c(=O)c2c(C)c(C(=O)OCC)sc2n(C[C@H](OCCC#N)c2cc(F)ccc2OC)c1=O [Compound I-297] |
|  |  |  |  |  |  |  |  | 2 µg/mL (≈ 3.75 µM) | > 50 µg/mL | 2 µg/mL (≈ 3.75 µM) | 10 µg/mL (≈ 18.7 µM) | > 50 µg/mL | 2 µg/mL (≈ 3.75 µM) | > 50 µg/mL | ≥ 10 µg/mL | CCOC(=O)c1sc2c(c1C)c(=O)n(C(C)(C)C(=O)NC(C)C)c(=O)n2CCc1cc(F)ccc1OC [Compound I-298] |
|  |  |  |  |  |  |  |  | 2 µg/mL (≈ 3.26 µM) | > 50 µg/mL | 0.4 µg/mL (≈ 0.652 µM) | 10 µg/mL (≈ 16.3 µM) | 50 µg/mL (≈ 81.5 µM) | 2 µg/mL (≈ 3.26 µM) | > 50 µg/mL | 50 µg/mL (≈ 81.5 µM) | COCCO[C@@H](Cn1c(=O)n(C(C)(C)C(=O)NC2CCC2)c(=O)c2c(C)c(-n3cccn3)sc21)c1cc(F)ccc1OC [Compound I-299] |
|  |  |  |  |  |  |  |  | 10 µg/mL (≈ 17.7 µM) | > 50 µg/mL | 2 µg/mL (≈ 3.54 µM) | > 50 µg/mL | 10 µg/mL (≈ 17.7 µM) | ≥ 2 µg/mL | > 50 µg/mL | > 50 µg/mL | Cc1c(-n2nccn2)sc2c1c(=O)n(C(C)(C)C(=O)NC(C)C)c(=O)n2C[C@H](OCCC#N)c1ccccc1O [Compound I-301] |
|  |  |  |  |  |  |  |  | 10 µg/mL (≈ 17.4 µM) | > 50 µg/mL | ≥ 2 µg/mL | 50 µg/mL (≈ 87 µM) | 0.08 µg/mL (≈ 0.139 µM) | 2 µg/mL (≈ 3.48 µM) | > 50 µg/mL | 50 µg/mL (≈ 87 µM) | CCNC(=O)C(C)(C)n1c(=O)c2c(C)c(C(=O)OCC)sc2n(C[C@H](OCCC#N)c2cc(F)ccc2O)c1=O [Compound I-302] |
|  |  |  |  |  |  |  |  | 0.4 µg/mL (≈ 0.653 µM) | > 50 µg/mL | 0.08 µg/mL (≈ 0.131 µM) | 2 µg/mL (≈ 3.26 µM) | 2 µg/mL (≈ 3.26 µM) | 2 µg/mL (≈ 3.26 µM) | > 50 µg/mL | ≥ 2 µg/mL | CCOC(=O)c1sc2c(c1C)c(=O)n(C(C)(C)C(=O)NC(C)C)c(=O)n2C[C@H](OCC(C)(C)C#N)c1ccccc1OC [Compound I-303] |
